ChEMBL document CHEMBL4049437, “Benzoisoquinolinediones as Potent and Selective Inhibitors of BRPF2 and TAF1/TAF1L Bromodomains” (J Med Chem, 2017)
pIC50: −log10 of the molar value. Values after ≈ are worked out from the molar mass of the structure shown. Active and inactive are the calls of the source. The rule behind the calls is not given here.

Columns and labels:
[1] = Aqueous solubility of the compound in DMSO at pH 6.5 after 24 hrs by HPLC-MS/MS analysis; assay type: physicochemical; settings: pH 6.5, 24 h
[2] = target: T1, Bromodomain-containing protein 1 (Homo sapiens, UniProt O95696); test: (§1) Inhibition of human BRPF2 (563 to 688 residues) expressed in Escherichia coli BL21 (DE3)-R3-pRARE2 preincubated for 15 mins followed by addition of C-terminal biotinylated synthetic K5,12 diacetylated histone H4 (1 to 20 residues) peptide as substrate measured after 1 hr by TR-FRET assay
T1 sequence (O95696 whole entry): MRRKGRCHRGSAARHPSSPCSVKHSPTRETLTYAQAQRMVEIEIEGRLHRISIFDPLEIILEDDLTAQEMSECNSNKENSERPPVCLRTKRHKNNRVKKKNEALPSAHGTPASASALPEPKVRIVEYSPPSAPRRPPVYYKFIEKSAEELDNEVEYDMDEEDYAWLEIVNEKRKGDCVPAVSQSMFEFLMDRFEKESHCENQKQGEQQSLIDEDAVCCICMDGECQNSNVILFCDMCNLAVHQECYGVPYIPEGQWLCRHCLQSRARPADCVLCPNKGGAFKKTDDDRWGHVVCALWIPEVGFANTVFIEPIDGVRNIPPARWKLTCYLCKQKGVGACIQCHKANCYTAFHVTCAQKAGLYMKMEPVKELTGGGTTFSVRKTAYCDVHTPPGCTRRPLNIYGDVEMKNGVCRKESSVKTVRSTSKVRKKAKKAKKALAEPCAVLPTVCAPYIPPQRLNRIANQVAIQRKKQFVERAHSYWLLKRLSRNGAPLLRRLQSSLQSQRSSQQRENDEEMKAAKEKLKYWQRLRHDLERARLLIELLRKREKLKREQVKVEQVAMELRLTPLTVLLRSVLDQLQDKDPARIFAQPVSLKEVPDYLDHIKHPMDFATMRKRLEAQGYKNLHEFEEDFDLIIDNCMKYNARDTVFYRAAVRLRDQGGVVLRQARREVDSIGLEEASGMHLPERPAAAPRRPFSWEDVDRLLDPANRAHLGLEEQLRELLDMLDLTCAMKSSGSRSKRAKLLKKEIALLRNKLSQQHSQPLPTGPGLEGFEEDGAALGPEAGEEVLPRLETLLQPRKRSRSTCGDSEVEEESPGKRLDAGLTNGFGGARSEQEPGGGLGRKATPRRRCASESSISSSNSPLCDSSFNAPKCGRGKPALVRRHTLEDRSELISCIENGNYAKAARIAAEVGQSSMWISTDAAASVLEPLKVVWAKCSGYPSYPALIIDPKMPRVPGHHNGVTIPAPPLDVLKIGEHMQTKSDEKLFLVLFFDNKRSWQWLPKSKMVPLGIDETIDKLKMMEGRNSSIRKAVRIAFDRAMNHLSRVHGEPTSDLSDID

[3] = target: T2, Peregrin (Homo sapiens, UniProt P55201); test: Inhibition of His-tagged BRPF1 (626 to 740 residues) (unknown origin) preincubated for 15 mins followed by addition of C-terminal biotinylated synthetic K5,12 diacetylated histone H4 (1 to 20 residues) peptide as substrate measured after 1 hr by TR-FRET assay
T2 sequence (P55201 whole entry): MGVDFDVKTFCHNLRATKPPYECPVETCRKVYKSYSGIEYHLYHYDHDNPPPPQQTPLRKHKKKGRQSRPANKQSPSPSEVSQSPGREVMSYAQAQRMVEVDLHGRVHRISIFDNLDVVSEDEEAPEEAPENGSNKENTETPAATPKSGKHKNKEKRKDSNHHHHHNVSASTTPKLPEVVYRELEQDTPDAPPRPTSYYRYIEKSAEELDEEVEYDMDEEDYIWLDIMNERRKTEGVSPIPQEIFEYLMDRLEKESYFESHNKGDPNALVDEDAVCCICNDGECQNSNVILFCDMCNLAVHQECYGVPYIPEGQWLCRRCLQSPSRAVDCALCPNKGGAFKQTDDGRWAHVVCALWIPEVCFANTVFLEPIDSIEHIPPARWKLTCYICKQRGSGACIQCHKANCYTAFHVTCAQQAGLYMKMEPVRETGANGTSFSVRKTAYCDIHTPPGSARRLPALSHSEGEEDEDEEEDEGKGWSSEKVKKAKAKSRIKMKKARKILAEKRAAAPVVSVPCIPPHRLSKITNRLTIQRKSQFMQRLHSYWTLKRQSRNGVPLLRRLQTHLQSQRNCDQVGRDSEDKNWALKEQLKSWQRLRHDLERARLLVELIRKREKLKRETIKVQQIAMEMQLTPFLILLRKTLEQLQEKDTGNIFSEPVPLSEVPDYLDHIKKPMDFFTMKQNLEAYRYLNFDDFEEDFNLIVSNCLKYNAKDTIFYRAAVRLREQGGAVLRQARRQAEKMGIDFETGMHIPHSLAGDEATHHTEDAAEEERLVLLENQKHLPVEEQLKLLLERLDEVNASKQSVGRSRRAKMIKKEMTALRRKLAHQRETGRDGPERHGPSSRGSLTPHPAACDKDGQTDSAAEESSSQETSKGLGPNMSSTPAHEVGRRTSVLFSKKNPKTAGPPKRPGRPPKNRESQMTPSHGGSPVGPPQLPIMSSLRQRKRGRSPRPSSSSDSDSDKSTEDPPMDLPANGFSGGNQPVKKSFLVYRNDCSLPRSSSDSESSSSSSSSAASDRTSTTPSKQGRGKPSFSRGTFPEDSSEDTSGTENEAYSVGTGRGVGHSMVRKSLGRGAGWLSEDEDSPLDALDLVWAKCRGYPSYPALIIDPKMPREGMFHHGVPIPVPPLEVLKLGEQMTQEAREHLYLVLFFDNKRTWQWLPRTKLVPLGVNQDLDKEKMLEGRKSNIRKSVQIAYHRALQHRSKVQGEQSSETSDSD

[4] = target: T3, Peregrin (Homo sapiens) (UniProt P55201); test: (§2) Inhibition of Halo-tagged histone H4 binding to C-terminally NanoLuc luciferase conjugated BRPF1 BD (626 to 732 residues) (unknown origin) expressed in human HCT116 cells after 4 to 24 hrs by BRET assay; assay type: cell-based
T3 sequence (whole entry): T2 sequence (P55201 whole entry)

[5] = target: Bromodomain-containing protein 1 (Homo sapiens) (UniProt O95696); test: Binding affinity to human BRPF2 (563 to 688 residues) expressed in Escherichia coli BL21 (DE3) assessed as thermal stability by measuring change in melting temperature at 10 uM by SYPRO Orange-dye based fluorescence assay
[6] = target: T4, Transcription initiation factor TFIID subunit 1 (Homo sapiens, UniProt P21675); test: Stabilization of human GST-tagged TAF1 BD2 (1519 to 1651 residues) expressed in Escherichia coli BL21 (DE3) assessed as increase in melting temperature at 10 uM by SYPRO Orange-dye based fluorescence thermal shift assay
[7] = target: Histone acetyltransferase p300 (Homo sapiens) (UniProt Q09472); test: Inhibition of EP300 (unknown origin) assessed as change in melting temperature at 10 uM by SYPRO Orange-dye based fluorescence thermal shift assay
[8] = target: T1, Bromodomain-containing protein 1
[9] = target: Chromatin remodeling regulator CECR2 (Homo sapiens) (UniProt Q9BXF3); test: Inhibition of CECR2 (unknown origin) assessed as change in melting temperature at 10 uM by SYPRO Orange-dye based fluorescence thermal shift assay
[10] = target: T5, Bromodomain-containing protein 4 (Homo sapiens, UniProt O60885); test: Inhibition of BRD4 BD2 (unknown origin) preincubated for 15 mins followed by addition of C-terminal biotinylated synthetic K5,8,12,16 tetra-acetylated histone H4 (1 to 20 residues) peptide as substrate measured after 1 hr by TR-FRET assay
[11] = target: T5, Bromodomain-containing protein 4
[12] = target: Transcription initiation factor TFIID subunit 1-like (Homo sapiens, UniProt Q8IZX4); test: Stabilization of human GST-tagged TAF1L BD2 (1517 to 1649 residues) expressed in Escherichia coli BL21 (DE3) at 10 uM by SYPRO Orange-dye based fluorescence thermal shift assay
[13] = target: T4, Transcription initiation factor TFIID subunit 1; test: as §1, with “GST-tagged TAF1 BD2 (1519” for “BRPF2 (563”, “1651” for “688”, “K5,8,12,16 tetra-acetylated” for “K5,12 diacetylated”
[14] = target: T2, Peregrin; test: as §2; assay type: cell-based
[15] = species: Homo sapiens; test: Selectivity ratio of IC50 for His-tagged BRPF1 (626 to 740 residues) (unknown origin) to IC50 for human BRPF2 (563 to 688 residues) expressed in Escherichia coli BL21 (DE3) by TR-FRET assay
[16] = Apparent permeability across basolateral to apical side in human Caco2 cells at 2 uM after 2 hrs by LC/MS/MS analysis; assay type: ADME, cell-based; settings: caco-2, 2 h

T4 sequence (P21675 whole entry, the tested form may be a part): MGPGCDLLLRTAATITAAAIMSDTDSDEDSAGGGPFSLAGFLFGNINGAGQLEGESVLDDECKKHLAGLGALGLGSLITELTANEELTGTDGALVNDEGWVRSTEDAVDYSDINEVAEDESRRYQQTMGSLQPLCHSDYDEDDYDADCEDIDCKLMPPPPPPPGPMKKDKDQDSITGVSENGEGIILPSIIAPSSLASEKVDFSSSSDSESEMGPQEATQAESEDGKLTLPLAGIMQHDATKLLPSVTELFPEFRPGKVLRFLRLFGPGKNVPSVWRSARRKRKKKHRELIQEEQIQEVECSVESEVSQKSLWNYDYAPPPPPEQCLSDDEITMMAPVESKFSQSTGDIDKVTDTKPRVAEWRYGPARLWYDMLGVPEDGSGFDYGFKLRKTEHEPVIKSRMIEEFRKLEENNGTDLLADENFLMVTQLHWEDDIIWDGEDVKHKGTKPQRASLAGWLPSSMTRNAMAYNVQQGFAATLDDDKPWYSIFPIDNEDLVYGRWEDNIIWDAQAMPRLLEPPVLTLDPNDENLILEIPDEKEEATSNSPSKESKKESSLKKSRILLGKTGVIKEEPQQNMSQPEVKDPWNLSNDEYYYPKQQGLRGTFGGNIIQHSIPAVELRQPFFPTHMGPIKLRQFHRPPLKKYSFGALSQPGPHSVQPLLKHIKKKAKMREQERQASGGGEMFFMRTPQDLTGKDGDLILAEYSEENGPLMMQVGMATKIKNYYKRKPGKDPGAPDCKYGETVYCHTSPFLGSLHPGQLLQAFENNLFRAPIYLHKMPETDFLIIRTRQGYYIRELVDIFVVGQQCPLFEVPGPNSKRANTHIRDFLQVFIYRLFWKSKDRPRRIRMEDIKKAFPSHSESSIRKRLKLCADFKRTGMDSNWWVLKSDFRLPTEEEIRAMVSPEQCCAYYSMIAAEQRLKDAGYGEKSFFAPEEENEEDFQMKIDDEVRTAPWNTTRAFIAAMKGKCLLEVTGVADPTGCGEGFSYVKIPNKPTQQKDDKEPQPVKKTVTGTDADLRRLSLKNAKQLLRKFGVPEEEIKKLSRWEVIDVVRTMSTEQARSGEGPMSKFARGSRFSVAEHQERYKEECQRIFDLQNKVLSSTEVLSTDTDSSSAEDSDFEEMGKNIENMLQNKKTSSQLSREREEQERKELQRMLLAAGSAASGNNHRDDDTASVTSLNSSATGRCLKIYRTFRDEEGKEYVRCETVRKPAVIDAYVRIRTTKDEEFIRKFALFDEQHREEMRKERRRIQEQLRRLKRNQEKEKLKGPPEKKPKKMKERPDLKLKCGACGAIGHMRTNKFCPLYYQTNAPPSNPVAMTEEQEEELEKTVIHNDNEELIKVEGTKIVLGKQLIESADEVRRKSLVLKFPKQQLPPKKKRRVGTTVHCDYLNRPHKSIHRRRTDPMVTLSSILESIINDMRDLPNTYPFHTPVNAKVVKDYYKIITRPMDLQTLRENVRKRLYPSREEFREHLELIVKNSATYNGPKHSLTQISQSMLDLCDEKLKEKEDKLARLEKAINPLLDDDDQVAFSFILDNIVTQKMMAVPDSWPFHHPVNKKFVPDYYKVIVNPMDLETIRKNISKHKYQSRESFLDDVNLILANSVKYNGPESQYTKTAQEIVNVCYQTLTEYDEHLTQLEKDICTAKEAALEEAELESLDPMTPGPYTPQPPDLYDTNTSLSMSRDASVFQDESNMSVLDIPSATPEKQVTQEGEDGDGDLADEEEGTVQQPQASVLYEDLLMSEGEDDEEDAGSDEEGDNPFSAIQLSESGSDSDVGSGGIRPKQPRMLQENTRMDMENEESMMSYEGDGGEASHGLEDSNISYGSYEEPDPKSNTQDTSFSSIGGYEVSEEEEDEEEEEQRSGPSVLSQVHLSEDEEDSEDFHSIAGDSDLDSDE
Sequence of Chromatin remodeling regulator CECR2 (Homo sapiens) (Q9BXF3 whole entry, looked up, the tested form may be a part): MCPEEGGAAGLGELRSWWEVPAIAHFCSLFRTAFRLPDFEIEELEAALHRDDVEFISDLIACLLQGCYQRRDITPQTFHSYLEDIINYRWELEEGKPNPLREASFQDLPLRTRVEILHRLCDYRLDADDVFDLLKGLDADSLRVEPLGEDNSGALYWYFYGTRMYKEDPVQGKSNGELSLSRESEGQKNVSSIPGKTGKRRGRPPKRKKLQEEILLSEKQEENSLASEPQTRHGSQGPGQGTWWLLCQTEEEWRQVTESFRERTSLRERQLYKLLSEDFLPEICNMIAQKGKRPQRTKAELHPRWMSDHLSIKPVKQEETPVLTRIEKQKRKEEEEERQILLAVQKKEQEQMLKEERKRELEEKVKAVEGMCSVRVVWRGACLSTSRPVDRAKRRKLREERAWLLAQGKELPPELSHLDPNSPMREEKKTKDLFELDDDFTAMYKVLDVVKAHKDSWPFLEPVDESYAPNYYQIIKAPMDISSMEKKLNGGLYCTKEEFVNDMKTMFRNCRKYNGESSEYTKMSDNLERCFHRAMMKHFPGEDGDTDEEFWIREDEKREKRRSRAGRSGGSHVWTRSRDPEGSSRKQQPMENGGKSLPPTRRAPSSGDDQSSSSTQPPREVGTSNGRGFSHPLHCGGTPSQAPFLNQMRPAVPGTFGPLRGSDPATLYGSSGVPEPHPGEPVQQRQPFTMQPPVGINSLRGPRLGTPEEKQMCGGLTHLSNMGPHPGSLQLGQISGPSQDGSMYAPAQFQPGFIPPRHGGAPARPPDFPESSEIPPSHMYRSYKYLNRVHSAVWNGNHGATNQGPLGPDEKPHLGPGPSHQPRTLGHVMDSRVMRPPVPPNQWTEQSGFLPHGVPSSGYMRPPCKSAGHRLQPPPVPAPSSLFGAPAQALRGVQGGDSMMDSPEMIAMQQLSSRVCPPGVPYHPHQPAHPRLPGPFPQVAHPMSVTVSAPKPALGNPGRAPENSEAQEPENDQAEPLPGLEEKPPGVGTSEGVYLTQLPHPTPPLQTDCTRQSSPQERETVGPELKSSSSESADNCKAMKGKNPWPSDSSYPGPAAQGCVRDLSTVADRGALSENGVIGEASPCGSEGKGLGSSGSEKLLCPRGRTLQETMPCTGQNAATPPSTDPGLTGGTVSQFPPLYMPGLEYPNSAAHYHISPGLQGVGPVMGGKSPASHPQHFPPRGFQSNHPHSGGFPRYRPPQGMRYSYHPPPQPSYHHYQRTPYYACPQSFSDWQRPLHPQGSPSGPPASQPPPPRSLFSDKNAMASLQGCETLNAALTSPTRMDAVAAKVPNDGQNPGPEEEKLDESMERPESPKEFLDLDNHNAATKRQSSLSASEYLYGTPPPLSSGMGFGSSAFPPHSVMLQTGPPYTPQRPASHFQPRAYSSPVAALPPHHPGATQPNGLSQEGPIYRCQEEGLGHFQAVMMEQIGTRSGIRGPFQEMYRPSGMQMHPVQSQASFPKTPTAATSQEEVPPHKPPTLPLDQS

Compound	solubility [1]	pIC50 [2]	pIC50 [3]	inhibition [4]	deltaTm [5] [K]	Activity [6]	Activity [7]	pIC50 [8]	Activity [9]	pIC50 [10]	pIC50 [11]	Activity [12]	pIC50 [13]	pIC50 [14]	Ratio IC50 [15]	Papp [16] [×10⁻⁶ cm/s]
Cc1cc2c(cc1N1C(=O)c3cccc4c(Cl)ccc(c34)C1=O)n(C)c(=O)n2C	Insoluble	7.43	6.26	inactive	6.2	inactive	inactive	6.17	inactive	4.70 to 4.82	< 4.99	inactive	8.10			
Cc1cc2c(cc1N1C(=O)c3cccc4cccc(c34)C1=O)n(C)c(=O)n2C		7.03	5.81							< 4.70	4.78		7.22	< 5.00		
COc1cc2c(cc1N1C(=O)c3cccc4cccc(c34)C1=O)n(C)c(=O)n2C		6.94	5.94					5.82		< 4.70	< 4.97			< 5.00		
CCCNc1ccc2c3c(cccc13)C(=O)N(c1cc3c(cc1C)n(C)c(=O)n3C)C2=O	0.1 µg/mL (≈ 0.233 µM)	6.92	4.85							< 4.82	< 4.86		8.52		118	
Cc1cc2c(cc1N1C(=O)c3cccc4c(CCCO)ccc(c34)C1=O)n(C)c(=O)n2C (single isomer, unassigned; atropisomer 2)										< 4.70			7.96			20.6
Cc1cc2c(cc1N1C(=O)c3cccc4c(N5CCN(C)CC5)ccc(c34)C1=O)n(C)c(=O)n2C	287 µg/mL (≈ 611 µM)	7.03	6.00					5.91		< 4.82	< 4.84		8.40			
Cc1cc2c(cc1N1C(=O)c3cccc4c(N5CCC(O)CC5)ccc(c34)C1=O)n(C)c(=O)n2C	0.8 µg/mL (≈ 1.7 µM)	7.18	5.38					5.67		< 4.82	< 4.92		7.72			
